# Measured values taken from US8802240B2, “Uses of formulations of thyroid hormone analogs and nanoparticulate forms thereof to increase chemosensitivity and radiosensitivity in tumor or cancer cells” (Nanopharmaceuticals LLC, priority 2011, dated 2014).
# Entries after “also recorded” stand apart in the source; their conditions may differ. Where two headings read alike, the source gives them in different places.
# Tests used:
# M21 melanoma cells = conditions: 20 ug/ml; doses of 0, 5, and 10 Gy; cited from earlier work
# ERK1/2 = experiment: MAPK activation in ECV304 cells (immunoblot of nuclear phosphorylated ERK1/2); assay type: cell-based; conditions: for effect on T4-induced ERK1/2 activation (in words): PD 98059 30 μmol/L or CGP41251 100 nmol/L for 30 minutes, then 10^−7 M T4 for 15 minutes
# Experimental: ECV304 endothelial cells were cultured in M199 medium with 0.25% hormone-depleted serum 13 for 2 days. […] Nuclear fractions were prepared from all samples by the method reported previously (see Li et al., Carcinogenesis 29:62-69 (2008)), the proteins separated by polyacrylamide gel electrophoresis, and transferred to membranes for immunoblotting with antibody to phosphorylated ERK 1/2.
# [1] = tested on: chick chorioallantoic membrane (CAM) blood vessel branch points; experiment: Chick chorioallantoic membrane (CAM) model of angiogenesis; assay type: in vivo; conditions: for generation of new blood vessels from existing vessels promoted: 10^−7-10^−9 M
# Experimental: In vivo neovascularization was examined by methods described previously. 9-12 Ten-day-old chick embryos were purchased from SPAFAS (Preston, Conn.) and incubated at 37° C. with 55% relative humidity. A hypodermic needle was used to make a small hole in the shell concealing the air sac, and a second hole was made on the broad side of the egg, directly over an avascular portion of the embryonic membrane that was identified by candling. A false air sac was created beneath the second hole by the application of negative pressure at the first hole, causing the CAM to separate from the shell. […] Thyroid hormone, hormone analogs, FGF2 or control solvents, and inhibitors were then applied to the disks and the disks allowed to dry. The disks were then suspended in PBS and placed on growing CAMs. […] At 24 hours, the MAPK cascade inhibitor PD 98059 was also added to CAMs topically by means of the filter disks. […] The number of vessel branch points contained in a circular region equal to the area of each filter disk were counted. […] In addition, each experiment was performed 3 times. The resulting angiogenesis index is the mean±SEM of new branch points.
# FGF2 cDNA = experiment: RT-PCR of FGF2 in ECV304 cells; assay type: cell-based; conditions: T4 10^−7 mol/L, apparent by 6 hours, further enhanced by 48 hours
# Experimental: RNA (1 μg) was subjected to reverse transcription-polymerase chain reaction (RT-PCR) using the Access RT-PCR system (Promega). Total RNA was reverse transcribed into cDNA at 48° C. for 45 minutes, then denatured at 94° C. for 2 minutes. Second-strand synthesis and PCR amplification were performed for 40 cycles with denaturation at 94° C. for 30 s, annealing at 60° C. for 60 s, and extension at 68° C. for 120 s, with final ex-tension for 7 minutes at 68° C. after completion of all cycles. PCR primers for FGF2 were as follows: FGF2 sense strand 5′-[…]-3′ (SEQ ID NO:1), antisense strand 5′ […]-3′ (SEQ ID NO:2); the length of the PCR product was 734 bp. Primers for GAPDH included the sense strand 5′-[…]-3′ (SEQ ID NO:3), and antisense strand 5′-[…]-3′ (SEQ ID NO:4); the length of the PCR product was 218 bp. […] The target bands of the gel were quantified using LabImage software (Kapelan), and the value for [FGF2/GAPDH]X10 calculated for each time point.
# pKa of functional groups = assay type: physicochemical; conditions: estimated
# SF763 glioblastoma cells = conditions: 85 μM, 16 hours at 37° C., cited from earlier work
# ECV304 endothelial cells = experiment: FGF2 release from ECV304 endothelial cells (ELISA); assay type: cell-based
# Experimental: ECV304 endothelial cells were cultured in M199 medium supplemented with 10% fetal bovine serum. […] After 72 hours, the supernatants were harvested and assays for FGF performed without dilution using a commercial ELISA system (R&D Systems) (See Davis et al., Circ Res 94:1500-1506 (2004)).
# [2] = tested on: matrigel plug angiogenesis; experiment: Mouse matrigel model of angiogenesis (plug hemoglobin); assay type: in vivo, mice (C57BL/6NCr); conditions: numbers are Tetrac analogs of Example 13; for Mean inhibition of angiogenesis (%) / Hemoglobin (mg/mL) ± SEM: FGF 100 ng + test substance 10 μg/plug; for Hemoglobin (mg/mL) ± SEM: n = 7-14
# Experimental: Normal male mice (C57BL/6NCr) 6-8 weeks of age and weighing ˜20 g were purchased from Taconic farm. Animals were housed 4 per cage, in controlled conditions of temperature (20-24° C.); humidity (60-70%) and 12 hrs. light/dark cycle provided with food and water ad libitum. […] Aliquots of matrigel were placed into cold polypropylene tubes to prevent the matrigel from solidifying and the angiogenesis promoter added to matrigel with or without agonist. Mice were treated daily. Matrigel was subcutaneously injected as triple injection per animal at 100 μL/animal. At day 14 post plug implant all animals were killed in CO2 chamber and matrigel plugs were collected. Plug hemoglobin content was analyzed from three implants/mice (n=6 per group) to measure angiogenesis.
# The matrigel plugs dissected from the mice were carefully stripped of any remaining peritoneum. The plugs were placed into 0.5 mL tube of ddH2O and homogenized for 5-10 min. […] Absorbance was read with a Microplate Manager ELISA reader at 540 nm. […] Hemoglobin concentration is a reflection of the number of blood vessels in the plugs.
# [3] = tested on: glioblastoma (GBM) patients; conditions: induction of mild hypothyroidism; cited from earlier work
# Morris 7800 hepatoma = conditions: PTU 0.1%; cited from earlier work
# [4] = tested on: transplantable liver tumor; conditions: cited from earlier work
# V-79 cells = conditions: cited from earlier work
compound,measurement,setting,value
CNTO 95: human anti-αv integrin monoclonal antibody,increase in sensitivity (in vitro apoptosis) by a factor of,M21 melanoma cells,2 fold
CO[C@@H]1[C@H](N(C)C(=O)c2ccccc2)C[C@H]2O[C@]1(C)n1c3ccccc3c3c4c(c5c6ccccc6n2c5c31)C(=O)NC4 [CGP41251],effect on T4-induced ERK1/2 activation (in words),ERK1/2,blocked
"N[C@@H](Cc1cc(I)c(Oc2cc(I)c(O)c(I)c2)c(I)c1)C(=O)O [Compound T4, L-thyroxine]",generation of new blood vessels from existing vessels promoted,[1],two- to three-fold
same,effect on the angiogenic effect of sub-maximal FGF2 (in words),[1]; T4 0.05 μmol/L + FGF2 0.5 μg/mL,enhanced
same,appearance of phosphorylated ERK1/2 in cell nuclei,ERK1/2; T4 10^−7 mol/L,≤ 15 min
same,time of maximal level of nuclear phosphorylated ERK1/2,ERK1/2; T4 10^−7 mol/L,30 min
same,effect on MAPK activation caused by FGF2 (in words),"ERK1/2; T4 10^−7 mol/L + FGF2 10 ng/mL, 15-minute co incubation",enhanced the MAPK activation caused by FGF2
same,"abundance of FGF2 cDNA, corrected for GAPDH content (in words)",FGF2 cDNA,increase in abundance of FGF2 cDNA
same,pKa,pKa of functional groups; read-out: pKa of the COOH (carboxylic acid) group,~2
same,pKa,pKa of functional groups; read-out: pKa of the NH2 (amino) group,~9
CC(C)[C@H]1C(=O)N[C@@H](CCCN=C(N)N)C(=O)NCC(=O)N[C@@H](CC(=O)O)C(=O)N[C@H](Cc2ccccc2)C(=O)N1C [EMD121974],increase of α,SF763 glioblastoma cells,4.4 fold
same,α component in the LQ survival equation,SF763 glioblastoma cells; without approximately 0.04,~0.18 Gy^−1
"N[C@@H](Cc1cc(I)c(Oc2ccc(O)c(I)c2)c(I)c1)C(=O)O [Compound T3, 3,5,3′-triiodo-L-thyronine]",increase in blood vessel branch formation,"[1]; 1 nmol/L (1 nM) for 3 days, vs PBS",2 fold
same,generation of new blood vessels from existing vessels promoted,[1],two- to three-fold
same,FGF2 (pg/mL/10^6 cells),"ECV304 endothelial cells; T3 (0.01 μmol/L), 3 days, Control 27.7 ± 3.1",98.8 ± 0.5 pg/mL/10^6 cells
"CC(C)[Si](OC(=O)Cc1cc(I)c(Oc2cc(I)c(O)c(I)c2)c(I)c1)(C(C)C)C(C)C [Tetrac analog 5, Triisopropylsilyl-2-(4-(4-hydroxy-3,5-diiodophenoxy)-3,5-diiodophenyl)acetate]",Mean % Inhibition,"[1]; FGF (1.25 μg/ml) + test substance, 10 μg/plug per footnote, numbers are Tetrac analogs of Example 13",75 ± 19%
same,Mean Branch points,"[1]; FGF (1.25 μg/ml) + test substance, 10 μg/plug per footnote, numbers are Tetrac analogs of Example 13, n = 8, PBS 73 ± 6, FGF 130 ± 11",87 ± 11
same,Mean inhibition of angiogenesis (%),[2],104 ± 14%
same,Hemoglobin (mg/mL) ± SEM,[2],0.2 ± 0.1 mg/mL
same,inhibition of FGF-induced angiogenesis (in words),[2],strong
same,melting point,,146 °C
"O=C(Cc1cc(I)c(Oc2cc(I)c(OCC3CO3)c(I)c2)c(I)c1)NC1CCCCC1 (stereo not shown) [Tetrac analog 6, N-cyclohexyl-2-(4-(3,5-diiodo-4-(oxiran-2-ylmethoxy)phenoxy)-3,5-diiodophenyl)acetamide]",inhibition of angiogenesis in the CAM assay (in words),[1]; numbers are Tetrac analogs of Example 13,"not as strong as compounds 3, 5, 7, and 9"
same,Mean inhibition of angiogenesis (%),[2],80 ± 16%
same,Hemoglobin (mg/mL) ± SEM,[2],0.7 ± 0.1 mg/mL
same,inhibition of FGF-induced angiogenesis (in words),[2],strong
same,melting point,,242 °C
"CCCc1cc(=O)[nH]c(=S)[nH]1 [PTU, 6-N-propyl-2-thiouracil]",effect of the presence of PTU on the effect of T4 (in words),[1]; filter disks pretreated with 1 mmol/L PTU,did not reduce the effect of T4
same,improvement of the duration of survival,[3],3 fold
same,increase in survival,Morris 7800 hepatoma,approximately 1.3 fold
same,time needed to grow from approximately 270 mm^3 to 900 mm^3,"[4]; 10 Gy of x-rays plus 0.05% PTU in the drinking water, control 6.2, x-rays alone 11.2",17.8 days
same,growth rate with PTU alone (in words),[4]; in vivo,no difference in growth rate from control neoplasms
COc1cccc(-c2cc(=O)c3ccccc3o2)c1N [PD 98059],effect on angiogenesis stimulated by T4 and T3 together (in words),"[1]; PD 98059 3 μmol/L, T4 0.1 μmol/L and T3 1 nmol/L",completely blocked; also recorded: fully inhibited
same,effect on FGF2 stimulation of branch formation (in words),"[1]; PD 98059, FGF2 1 μg/mL",effectively blocked
same,FGF2 (pg/mL/10^6 cells),ECV304 endothelial cells; T3 + PD 98059 (2 μmol/L),28.4 ± 3.2 pg/mL/10^6 cells
same,FGF2 (pg/mL/10^6 cells),ECV304 endothelial cells; T3 + PD 98059 (20 μmol/L),21.7 ± 3.5 pg/mL/10^6 cells
same,FGF2 (pg/mL/10^6 cells),ECV304 endothelial cells; T4 + PD 98059 (2 μmol/L),26.5 ± 4.5 pg/mL/10^6 cells
same,FGF2 (pg/mL/10^6 cells),ECV304 endothelial cells; T4 + PD 98059 (20 μmol/L),23.2 ± 4.8 pg/mL/10^6 cells
same,effect on T4-induced ERK1/2 activation (in words),ERK1/2,inhibited
"NC(=O)c1cccc(N)c1 [Compound 3AB, 3-aminobenzamide]",inhibition of PLDR,V-79 cells; Thraves et al.,~70%
same,Dq value,"V-79 cells; with 3AB, without 3.4",1 Gy
